# Source: patent CN101862374A, “莲子心及其提取物的新用途” (Individual, priority 2010, dated 2010)
# Tests used:
# [1] = tested on: prostate smooth muscle α1-AR [前列腺平滑肌α1-AR]; experiment: Competitive inhibition of 125IBE binding to α1-AR of prostate smooth muscle membranes; parameters: species or system rat; conditions: high dose
# [2] = tested on: type II 5α-reductase [II型5α-还原酶]; experiment: Spectrophotometric (NADPH, 340 nm) 5α-reductase inhibition; assay type: biochemical; conditions: for mean inhibition rate: NADPH consumption, 10 min, 37 °C, serial concentrations, average; for inhibition rate compared with finasteride: versus finasteride [非那甾胺]
# [3] = tested on: type II 5α-reductase [II型5α-还原酶]; experiment: DHT kit assay of 5α-reductase inhibition; assay type: biochemical; conditions: 37 °C, 30 min
# [4] = tested on: hyperlipidemia model rats [高血脂症模型大鼠]; conditions: rat; cited from earlier work
# [5] = tested on: platelets of hyperlipidemia patients and healthy persons [高脂血症患者和健康人血小板]; conditions: in vitro, blood, several inducers; cited from earlier work
# [6] = tested on: rat myocardium with ischemia-reperfusion injury [大鼠缺血再灌注损伤心肌]; conditions: cited from earlier work
# [7] = tested on: experimental hyperlipidemic rats [实验性高脂血症大鼠]; conditions: rat; cited from earlier work
# [8] = tested on: rat cerebral ischemia-reperfusion [大鼠脑缺血再灌注]; conditions: cited from earlier work
# autoxidation [自氧化] = conditions: cited from earlier work
# [9] = tested on: oxidatively damaged erythrocytes [氧化损伤红细胞]; conditions: cited from earlier work
smiles,measurement,setting,value
COc1ccc(C[C@@H]2c3cc(Oc4cc(C[C@@H]5c6cc(OC)c(OC)cc6CCN5C)ccc4O)c(OC)cc3CCN2C)cc1 [甲基莲心碱],inhibition of prostate smooth muscle α1-AR,[1],能抑制前列腺平滑肌α1-AR
same,mean inhibition rate,[2],68.22%
same,inhibition rate compared with finasteride,[2],强于非那甾胺
same,inhibition of 5α-reductase activity by change of DHT concentration,[3],有明显抑制作用
same,antioxidant action of the organism,[4],增强机体抗氧化作用
same,degree of lipid peroxidation,[4],减轻脂质过氧化的程度
same,effect on blood lipids,[4],具有显著的抑制作用
same,inhibition of platelet aggregation,[5],可明显抑制多种诱聚剂诱导的高脂血症患者和健康人血小板聚集
COc1cc2c(cc1OC)[C@@H](Cc1ccc(O)c(Oc3cc4c(cc3OC)CCN(C)[C@@H]4Cc3ccc(O)cc3)c1)N(C)CC2 [莲心碱],area of myocardial infarction,[6],可减少心肌梗死的面积
same,damage of myocardial cells,[6],减轻心肌细胞的损伤
same,protection of ischemia-reperfusion injured myocardium,[6],有保护作用
same,inhibition of prostate smooth muscle α1-AR,[1],能抑制前列腺平滑肌α1-AR
same,mean inhibition rate,[2],71.43%
same,inhibition of 5α-reductase activity (in words),[2]; by NADPH determination,有明显抑制作用
same,inhibition rate compared with finasteride,[2],强于非那甾胺
same,inhibition of 5α-reductase activity by change of DHT concentration,[3],有明显抑制作用
same,atherosclerosis index,[7],显著降低
same,serum low-density lipoprotein cholesterol,[7],显著降低
same,serum total cholesterol,[7],显著降低
same,serum triglycerides,[7],显著降低
same,C-Fos protein expression after cerebral ischemia-reperfusion,[8],抑制脑缺血再灌注后NOS和C-Fos蛋白的表达
same,NOS expression after cerebral ischemia-reperfusion,[8],抑制脑缺血再灌注后NOS和C-Fos蛋白的表达
same,extent of infarct lesion,[8],可显著减少大鼠梗死病灶范围
COc1ccc(C[C@@H]2c3cc(Oc4cc(C[C@@H]5c6cc(O)c(OC)cc6CCN5C)ccc4O)c(OC)cc3CCN2C)cc1 [异莲心碱],inhibition of autoxidation,autoxidation [自氧化],能显著抑制自氧化
same,mean inhibition rate,[2],65.48%
same,inhibition rate compared with finasteride,[2],强于非那甾胺
same,inhibition of 5α-reductase activity by change of DHT concentration,[3],有明显抑制作用
same,protection of oxidatively damaged erythrocytes,[9],对氧化损伤红细胞有保护作用
"CC(C)(C)NC(=O)[C@H]1CC[C@H]2[C@@H]3CC[C@H]4NC(=O)C=C[C@]4(C)[C@H]3CC[C@]12C [非那雄胺, reference compound]",mean inhibition rate,[2],57.14%
